Data on 23 molecules can be found in patent US7083962B2, “Carbonyl reductases, polynucleotides comprising DNA encoding the same, methods for producing the same, and methods for producing optically active alcohol utilizing the same” (Daicel Chemical Industries Ltd., priority 2004, dated 2006).

The labels stand for the following.
B1: YGL039w: Saccharomyces cerevisiae carbonyl reductase homolog, SEQ ID NO: 21, expressed in E. coli from pSE-YGD9 (protein, listed as Saccharomyces cerevisiae)
chain: MTTEKTVVFVSGATGFIALHVVDDLLKTGYKVIGSGRSQEKNDGLLKKFKSNPNLSMEIVEDIAAPNAFDKVFQKHGKEIKVVLHIASPVHFNTTDFEKDLLIPAVNGTKSILEAIKNYAADTVEKVVITSSVAALASPGDMKDTSFVVNEESWNKDTWESCQANAVSAYCGSKKFAEKTAWDFLEENQSSIKFTLSTINPGFVFGPQLFADSLRNGINSSSAIIANLVSYKLGDNFYNYSGPFIDVRDVSKAHLLAFEKPECAGQRLFLCEDMFCSQEALDILNEEFPQLKGKIATGEPGSGSTFLTKNCCKCDNRKTKNLLGFQFNKFRDCIVDTASQLLEVQSKS
B2: YDR541c: Saccharomyces cerevisiae carbonyl reductase homolog, SEQ ID NO: 25, expressed in E. coli from pSE-YDR1 (protein, listed as Saccharomyces cerevisiae)
chain: MSNTVLVSGASGFIALHILSQLLKQDYKVIGTVRSHEKEAKLLRQFQHNPNLTLEIVPDISHPNAFDKVLQKRGREIRYVLHTASPFHYDTTEYEKDLLIPALEGTKNILNSIKKYAADTVERVVVTSSCTAIITLAKMDDPSVVFTEESWNEATWESCQIDGINAYFASKKFAEKAAWEFTKENEDHIKFKLTTVNPSLLFGPQLFDEDVHGHLNTSCEMINGLIHTPVNASVPDFHSIFIDVRDVALAHLYAFQKENTAGKRLVVTNGKFGNQDILDILNEDFPQLRGLIPLGKPGTGDQVIDRGSTTDNSATRKILGFEFRSLHESVHDTAAQILKKENRL
B3: YGL157w: Saccharomyces cerevisiae carbonyl reductase homolog, SEQ ID NO: 17, expressed in E. coli from pSE-YGP7 (protein, listed as Saccharomyces cerevisiae)
chain: MTTDTTVFVSGATGFIALHIMNDLLKAGYTVIGSGRSQEKNDGLLKKFNNNPKLSMEIVEDIAAPNAFDEVFKKHGKEIKIVLHTASPFHFETTNFEKDLLTPAVNGTKSILEAIKKYAADTVEKVIVTSSTAALVTPTDMNKGDLVITEESWNKDTWDSCQANAVAAYCGSKKFAEKTAWEFLKENKSSVKFTLSTINPGFVFGPQMFADSLKHGINTSSGIVSELIHSKVGGEFYNYCGPFIDVRDVSKAHLVAIEKPECTGQRLVLSEGLFCCQEIVDILNEEFPQLKGKIATGEPATGPSFLEKNSCKFDNSKTKKLLGFQFYNLKDCIVDTAAQMLEVQNEA

Test system in one data set: not listed separately
Kind of data set: Enzymatic synthesis of (S)-1-(3,4-dimethoxyphenyl)-2-propanol: optical purity and reaction yield. The data set is classed as biochemical. The note with it: 0.2 U homolog enzyme, 50 mM 3,4-dimethoxyphenylacetone, overnight, 25° C., pH 6.5. On the procedure: A reaction was performed overnight at 25° C. in 1 mL of a reaction solution comprising 200 mM potassium phosphate buffer (pH 6.5), 1 mM NADP^+, 2 U glucose dehydroganase (Wako Pure Chemical Industries, Ltd.), 250 mM glucose, 0.25 U carbonyl reductase, and 50 mM 3,4-dimethoxyphenylacetone. The optical purity of the produced (S)-1-(3,4-dimethoxyphenyl)-2-propanol was measured as follows: One mL of ethyl acetate was added to 0.5 mL of the reaction solution to extract (S)-1-(3,4-dimethoxyphenyl)-2-propanol, and the extraction solvent was desolvated. 0.5 mL of a dissolving solution (n-hexane: isopropanol=4:1) was then added to dissolve the extract, which was then analyzed by liquid chromatography using an optical resolution column. CHIRALCEL OF (4.6 mm×25 cm; Daicel Chemical Industries, Ltd.) was used as the optical resolution column. Chromatography was performed with a wavelength of 220 nm, a flow rate of 1.0 mL/min, and at 40° C. using an eluting solution of n-hexane: isopropanol=4:1.
In addition, the (S)-1-(3,4-dimethoxyphenyl)-2-propanol thus-produced was quantified using gas chromatography, and a yield relative to the raw starting material, 3,4-dimethoxyphenylacetone, was obtained. Specifically, the analysis was performed at a column temperature of 210° C., using Thermon 3000 (10%)-Chromosorb W (AW-DMCS, Mesh 60–80; 3.2 mm×210 cm) with a hydrogen flame ionization detector (FID). The resulting reaction yield was about 95%.
To prepare crude enzyme solution for enzyme reaction, the crude enzyme solution prepared in Example 18 was concentrated ten-folds using a UF membrane. This solution was reacted overnight at 25° C. in 1 mL of a reaction solution comprising 200 mM potassium phosphate buffer (pH 6.5), 1 mM NADP^+, 2 U glucose dehydrogenase (Wako Pure Chemical Industries, Ltd.), 250 mM glucose, 0.2 U homolog enzyme, and 50 mM 3,4-dimethoxyphenylacetone. Optical purity was measured and the produced (S)-1-(3,4-dimethoxyphenyl)-2-propanol was quantified as in Example 6. As a result, YGL157w (pSE-YGP7) produced 93.7% ee (S)-1-(3,4-dimethoxyphenyl)-2-propanol at a yield of 66%, YGL039w (pSE-YGD9) produced 93.6% ee at a yield of 94%, and YDR541c (pSE-YDR1) produced 94.8% ee at a yield of 6%.
For B1, the “Optical purity of the produced (S)-1-(3,4-dimethoxyphenyl)-2-propanol” value (“Optical purity of the produced” for short) is 93.6 % ee and the “Yield of (S)-1-(3,4-dimethoxyphenyl)-2-propanol” value (“Yield” for short) stood at 94%.

As to B2, the “Optical purity of the produced” value was 94.8 % ee and the “Yield” value was determined as 6%.

Take B3: the “Optical purity of the produced” value stood at 93.7 % ee and the “Yield” value is 66%.

The next data set has as its system carbonyl reductase. As to the kind of experiment: Activity of dehydrogenating 1-(3,4-dimethoxyphenyl)-2-propanol with NADP+. The data set is classed as biochemical, Torulaspora delbrueckii. The note with it: substrate 5 mM, coenzyme NADP+, dehydrogenation, pH 8.5, 30° C. Here is the method: (§1) The enzyme obtained in Example 1 was reacted with various ketones, ketoesters, and soon. The activities of the reduction reactions were expressed as relative activities, where the reduction of 3,4-dimethoxyphenylacetone was regarded as 100 (Table 2) (substrate specificity of carbonyl reductase). The activity of dehydrogenating 1-(3,4-dimethoxyphenyl)-2-propanol was measured as follows: A reaction was performed at 30° C. in a reaction solution comprising 50 mM Tris-HCl buffer (pH 8.5), 2.5 mM NADP^+, 5 mM 1-(3,4-dimethoxyphenyl)-2-propanol, and the enzyme. An increase in absorbance at 340 nm, accompanying NADPH production, was measured. 1 U was defined as the amount of enzyme catalyzing the production of 1 μmol NADPH per minute. In addition, the activity of reducing NADH-dependent 3,4-dimethoxyphenylacetone was measured as follows: A reaction was performed at 30° C. in a reaction solution comprising 50 mM potassium phosphate buffer (pH 6.5), 0.2 mM NADH, 5 mM 3,4-dimethoxyphenylacetone, and the enzyme, and decrease in absorbance at 340 nm, accompanying decrease in NADH, was measured. 1 U was defined as the amount of enzyme catalyzing a decrease of 1 μmol NADH per minute.
On to `COc1ccc(C[C@@H](C)O)cc1OC` [(R)-1-(3,4-dimethoxyphenyl)-2-propanol], for which the Relative activity is listed as 0.0%. As for `COc1ccc(C[C@H](C)O)cc1OC` [(S)-1-(3,4-dimethoxyphenyl)-2-propanol], the Relative activity is 0.0%.

A further data set concerns carbonyl reductase. As to the kind of experiment: Substrate specificity: NADPH-dependent reduction by the carbonyl reductase obtained in Example 1. The data set is classed as biochemical, Torulaspora delbrueckii. The note with it: substrate 1 mM, coenzyme NADPH; reduction of 3,4-dimethoxyphenylacetone regarded as 100. On the procedure:
(§2) A reaction solution comprising 50 mM potassium phosphate buffer (pH 6.5), 0.2 mM NADPH, 5 mM 3,4-dimethoxyphenylacetone, and an enzyme is reacted at 30° C. Any decrease in absorbance at 340 nm accompanying a decrease in NADPH is measured. 1U is defined as the amount of enzyme which catalyzes a 1 μmol decrease of NADPH in one minute.
as §1
For the molecule `CC12CCC(C(=O)C1=O)C2(C)C` (centres unmarked) [Camphorquinone], the Relative activity is on record as 644%.

Still in this data set, the particulars now being: substrate 2 mM, coenzyme NADPH; reduction of 3,4-dimethoxyphenylacetone regarded as 100.
With `O=C(CCl)c1cccc(Cl)c1` [2-Chloro-1-(3′-chlorophenyl)ethanone], the Relative activity came to 922%.

The data set is the same for the next values; noted with them: substrate 20 mM, coenzyme NADPH; reduction of 3,4-dimethoxyphenylacetone regarded as 100.
With `CC(=O)COC(C)=O` [1-Acetoxy-2-propanone], the Relative activity was determined as 24700%. On to `CC(=O)C(C)=O` [2,3-Butanedione], for which the Relative activity came out at 1480%. For the molecule `CCC(=O)C(C)=O` [2,3-Pentanedione], the Relative activity came out at 2590%. As for `CC(=O)CC(C)=O` [2,4-Pentanedione], the Relative activity is 422%. In the case of `CC(=O)OC(C)C(C)=O` (centres unmarked) [2-Acetoxy-3-butanone], the Relative activity is reported as 589%. Same read-out and setting: the value for `CC(=O)OC1CCCC1=O` (centres unmarked) [2-Acetoxycyclopentanone] was 567%; that for `CCC(=O)c1ccc(OC)cc1` [4′-Methoxypropiophenone] was 283%.

Consider `CC(=O)c1ccccc1` [Acetophenone], for which the Relative activity is 256%. As to `CC(=O)CCc1ccccc1` [Benzylacetone], the Relative activity is 739%.

For `CCOC(=O)CC(=O)CCl` [Ethyl 4-chloroacetoacetate], the Relative activity was 6780%.

Regarding `CCOC(=O)CC(C)=O` [Ethyl acetoacetate], the Relative activity was determined as 3170%. For the molecule `COCC(C)=O` [Methoxyacetone], the Relative activity stood at 117%.

With `COC(=O)CC(=O)CCl` [Methyl 4-chloroacetoacetate], the Relative activity stood at 8040%. Consider `COC(=O)CC(C)=O` [Methyl acetoacetate], for which the Relative activity came to 3670%. On the same count and under the same terms, the value for `COC(=O)C(C)=O` [Methyl pyruvate] was 1320%. For the molecule `CC(=O)COc1ccccc1` [Phenoxy-2-propanone], the Relative activity is listed as 939%.

Test system in a further data set: not listed separately
Kind of data set: 3,4-dimethoxyphenylacetone-reducing activity of cell-free extracts of transformed Escherichia coli. The data set is classed as biochemical, Escherichia coli JM109. The note with it: cell-free extracts of E. coli expressing the homolog. Here is the method: as §2
Escherichia coli JM109 strain transformed with plasmid pSE-TDR1, which expresses carbonyl reductase, and plasmid pSG-TDR1, which coexpresses carbonyl reductase and Bacillus subtilis-derived glucose dehydrogenase, was cultured overnight at 30° C. in liquid LB medium containing ampicillin. 0.1 mM IPTG was added, and the strain was further cultured for four hours.
Cells were collected by centrifugation, and then suspended in 50 mM potassium phosphate buffer (pH 6.5) comprising 0.5 M NaCl, 0.02% 2-mercaptoethanol, 2 mM PMSF, and 10% glycerin. Cells were then disrupted by sonication, and centrifuged. The obtained supernatant was used as a cell-free extract. The 3,4-dimethoxyphenylacetone-reducing activity and glucose-dehydrogenating activity of the cell-free extract were measured. The glucose-dehydrogenating activity was measured as follows: Measurements were performed at 30° C. in a reaction solution comprising the enzyme and 100 mM potassium phosphate buffer (pH 6.5), 2.5 mM NAD^+, 100 mM glucose. 1 U was defined as the amount of enzyme to catalyze production of […] of NADH per minute under the aforementioned reaction conditions.
Escherichia coli JM109+strains comprising pSE-YGP7, pSE-YGD9, pSE-YDR1, pSG-YGP7, pSG-YGD9, or pSG-YDR1 were cultured on LB medium comprising ampicillin, induced with 0.1 mM IPTG for four hours, and then centrifuged to collect the cells.
Each of these cell samples was suspended in a cell lysis solution (50 mM KPB pH 8.0, 1 mM EDTA, 0.02% 2-mercaptoethanol, 2 mM PMSF, 10% Glycerol). The cells were ruptured by sonication and then centrifuged to obtain the supernatant, which was used as a cell-free extract.
Turning to B1, the “3,4-dimethoxyphenylacetone reductase activity (in words)” value is listed as “confirmed to comprise 3,4-dimethoxyphenylacetone reductase activity”. For B2, the “3,4-dimethoxyphenylacetone reductase activity (in words)” value is “confirmed to comprise 3,4-dimethoxyphenylacetone reductase activity”. Regarding B3, the “3,4-dimethoxyphenylacetone reductase activity (in words)” value was “confirmed to comprise 3,4-dimethoxyphenylacetone reductase activity”.
